Consider three compounds from patent publication US20200148617A1, “GEMCABENE, PHARMACEUTICALLY ACCEPTABLE SALTS THEREOF, COMPOSITIONS THEREOF AND METHODS OF USE THEREFOR” (GEMPHIRE THERAPEUTICS INC., priority 2017, published 2020).

What is called Cmax is the highest concentration seen after dosing. For orientation: Tmax means the time from dosing to the highest level. By CL/F is commonly meant the apparent clearance, not corrected for the fraction that reaches the circulation.

A short description of series [1]: Effect of steady-state gemcabene 600 mg on single-dose pharmacokinetics of ON 1/35 (ethinyl estradiol/norethindrone) in healthy female subjects. Type of series: in vivo, human. Conditions: for exposure in presence of gemcabene calcium salt hydrate Crystal Form 1 (geometric LS mean ratio): single dose ON 1/35 with gemcabene 600 mg daily at steady state, mild drug-drug interaction. On the procedure: (§1) An open-label, two-sequence, cross-over study to assess the steady-state effects of gemcabene on the single-dose pharmacokinetics (PK) of oral contraceptive tablets in healthy female subjects was conducted with 300 mg tablets containing gemcabene calcium salt hydrate Crystal Form 1 having PSD90 of 52 μm (Tablet F).
(§2) The population for this study was generally healthy, adult female subjects of childbearing potential (≥18 to ≤35 years of age). This population supports the overall objective of the study to evaluate the effect of 600 mg of gemcabene calcium salt hydrate Crystal Form 1 having PSD90 of 52 μm at steady-state on the PK of a single dose of ON 1/35 (Ortho Novum 1/35; combined ethinyl estradiol/norethindrone oral contraceptive). The primary objective of this study was to assess the effect of daily 600 mg of gemcabene calcium salt hydrate Crystal Form 1 having PSD90 of 52 μm at steady-state on the pharmacokinetics (PK) of ON 1/35. The secondary objectives of this study were to assess the safety and tolerability of daily gemcabene 600 mg in combination with a single-dose ON 1/35 and to assess the steady-state PK of 600 mg of gemcabene calcium salt hydrate Crystal Form 1 having PSD90 of 52 μm (Tablet F×2).
(§3) Gemcabene calcium salt hydrate Crystal Form 1 having PSD90 of 52 μm was administered orally as a single dose of 600 mg, given as two 300 mg tablets (300-mg Tablet F×2) (with 240 mL of water). Gemcabene calcium salt hydrate Crystal Form 1 having PSD90 of 52 μm (600 mg) was administered at the same time each day.
Non-compartmental PK single-dose parameters were obtained, including Cmax, time to the maximum observed plasma concentration (Tmax), AUC from time 0 to time of last detectable concentration (AUClast) and when possible, AUC extrapolated to infinite time (AUC∞), percent of AUC∞ obtained from forward extrapolation (AUCextrap %), apparent terminal rate constant (λz), apparent terminal half-life ([…]), apparent total body clearance (CL/F), and apparent volume of distribution of the terminal phase (Vz/F) for ethinyl estradiol and norethindrone.

The nature of series [2]: Steady-state plasma gemcabene pharmacokinetics, 600 mg daily, healthy female subjects. Conditions: human, oral. Type of series: in vivo. How it is done: as §1, §2, §3
The conditions of series [3]: female, human, in vivo. On the procedure: as §1
as §2, with “F×2). […]” for “F×2).”

A short description of series [4]: Steady-state pharmacokinetics of gemcabene at 300, 600, 900 mg/day in FH patients. Type of series: in vivo, human. Conditions: for Cmax / AUC(0-t) / CL/F: mean. How it is done:
This was an open-label, dose-finding, 3-period, 3-treatment study using successively escalating doses of 300 mg, 600 mg, and 900 mg gemcabene calcium salt hydrate Crystal Form 1 having PSD90 of 52 μm in patients clinically diagnosed with familial hypercholesterolemia (FH). The treatment plan was for each of 8 patients to receive each of the successive doses, daily, for 4 weeks at a time with no interruption in gemcabene calcium salt hydrate Crystal Form 1 dosing between the dose levels. That is, the 8 FH patients were administered daily oral doses of gemcabene calcium salt hydrate Crystal Form 1 having PSD90 of 52 μm at 300 mg/day on Days 1-28, 600 mg/day on Days 29-56, and 900 mg/day on Days 57-84. Pharmacokinetic plasma samples were collected pre-dose and 0.5, 1, 2, 3, 5, and 12 hours post-dose on Day 28, Day 56, and Day 84. Additional (trough) samples were collected pre-dose on Day 14, Day 42, Day 70, and at the Early Termination Visit (if applicable). Plasma from these samples were analyzed for gemcabene concentrations and the data used for PK analysis. Plasma sample concentrations were available for pharmacokinetic analysis for all but 1 patient for whom no results were reported following the 900 mg dose on Day 84. Since there were no days off between dose levels, the starting plasma concentration for the 600 mg and 900 mg treatment periods was the steady state concentration for 300 mg and 600 mg, respectively.
During Days 1-28, patients received one 300-mg strength tablet containing gemcabene calcium salt hydrate Crystal Form 1 having PSD90 of 52 μm (Tablet D); during the Days 29-56, patients received two 300-mg strength tablets (2× Tablet D); and during the Days 57-84, patients received three 300-mg strength tablets (3× Tablet D) per day.
PK parameter estimates were derived by standard non-compartmental analysis methods using a validated installation of Phoenix® WinNonlin® version 6.4. The actual sampling times were used in the PK parameter calculations.
All plasma concentrations reported as missing were treated as missing. Steady state was assumed following QD administration for 28 days and therefore, plasma gemcabene concentrations at 24 hours post-dose were used as the pre-dose concentrations.
The following gemcabene PK parameters were calculated for each patient from the plasma concentration-time data:
AUClast and AUC(0-24) were calculated by numeric integration using the trapezoidal rule with linear up and log down interpolation.
The criterion for dose proportionality is 95% CI around the slope containing the value “1”.
The individual patient and gemcabene concentration-time data are listed using the number of significant digits or decimal places provided by the bioanalytical lab and nominal sample times, and summarized descriptively in tabular formats by dose level, and visit (for trough samples).

Where [5] appears, read: Treatment B = single dose ON 1/35 and daily gemcabene 600 mg, Treatment A = single dose ON 1/35 alone, healthy female subjects.

SMILES strings stand for the structures. Like-named read-outs stand apart in the source and are kept apart here.

In the case of `C#C[C@]1(O)CC[C@H]2[C@@H]3CCc4cc(O)ccc4[C@H]3CC[C@@]21C` [ethinyl estradiol], in series [1] (setting [5]), the “AUC0-12 (h*pg/mL): Ratio Geom. LS Mean (Treatment B/Treatment A)” value is recorded as 78.54%, the “AUClast (h*pg/mL): Ratio Geom. LS Mean (Treatment B/Treatment A)” value amounted to 86.70% and the “Cmax (pg/mL): Ratio Geom. LS Mean (Treatment B/Treatment A)” value worked out at 70.50%. In series [1], the “exposure in presence of gemcabene calcium salt hydrate Crystal Form 1 (geometric LS mean ratio)” value was “slightly decreased”.

In the case of `CC(C)(CCCCOCCCCC(C)(C)C(=O)O)C(=O)O` [gemcabene, 6-(5-carboxy-5-methyl-hexyloxy)-2,2-dimethyl-hexanoic acid], the concentration at 6 day in series [2] (Day 6, Treatment B, read-out: mean plasma gemcabene trough concentration) was 98.8 µg/mL. Further, the concentration at 7 day in series [2] (Day 7, Treatment B, read-out: mean plasma gemcabene trough concentration) amounted to 106 µg/mL. Besides, the concentration at 8 day in series [2] (Day 8, Treatment B, read-out: mean plasma gemcabene trough concentration) is 104 µg/mL. The Cmax was 178 µg/mL in series [2] (steady state, read-out: mean Cmax,ss); 84.8 µg/mL in series [4] (human, oral, 300 mg/day (Tablet D), Day 28 steady state, FH patients, plasma, n=8); 149 µg/mL in series [4] (human, oral, 600 mg/day (2× Tablet D), Day 56 steady state, FH patients, plasma, n=8); 195 µg/mL in series [4] (human, oral, 900 mg/day (3× Tablet D), Day 84 steady state, FH patients, plasma, n=7). Moreover, the “subjects with drug-related TEAE (constipation)” value in series [3] worked out at 1 subject. For the same compound, in series [4] (300 mg/day to 900 mg/day), the “dose proportionality of AUC(0-24)” value is given as “increased dose proportionally”. Besides, the “dose proportionality of Cmax” value in series [4] (300 mg/day to 900 mg/day) is listed as “slightly less than dose proportional”. Besides, the AUC(0-t) in series [4] (human, plasma, oral, 300 mg/day, 300 mg/day (Tablet D), steady state, FH patients, n=8, read-out: AUC0-24) came out at 1550 µg·h/mL; in series [4] (human, plasma, oral, 300 mg/day, 300 mg/day (Tablet D), steady state, FH patients, n=8, read-out: AUClast), 1590 µg·h/mL; in series [4] (human, plasma, oral, 600 mg/day, 600 mg/day (2× Tablet D), steady state, FH patients, n=8, read-out: AUC0-24), 2680 µg·h/mL; in series [4] (human, plasma, oral, 600 mg/day, 600 mg/day (2× Tablet D), steady state, FH patients, n=8, read-out: AUClast), 2700 µg·h/mL; in series [4] (human, plasma, oral, 900 mg/day, 900 mg/day (3× Tablet D), steady state, FH patients, n=7, read-out: AUC0-24) it was 3530 µg·h/mL; in series [4] (human, plasma, oral, 900 mg/day, 900 mg/day (3× Tablet D), steady state, FH patients, n=7, read-out: AUClast), 3490 µg·h/mL. For the same compound, the Tmax in series [4] (human, plasma, oral, 300 mg dose level, after 28 daily doses, min-max 1.0-2.0 h, read-out: Median Tmax) worked out at 1.6 h; in series [4] (human, plasma, oral, 300 mg/day (Tablet D), steady state, FH patients, median, n=8, read-out: Tmax) it was 1.6 h; in series [4] (human, plasma, oral, 600 mg dose level, after 28 daily doses, min-max 0.93-3.0 h, read-out: Median Tmax), 1.5 h; in series [4] (human, plasma, oral, 600 mg/day (2× Tablet D), steady state, FH patients, median, n=8, read-out: Tmax), 1.5 h; in series [4] (human, plasma, oral, 900 mg dose level, after 28 daily doses, min-max 0.98-3.0 h, read-out: Median Tmax) it was 1.9 h; in series [4] (human, plasma, oral, 900 mg/day (3× Tablet D), steady state, FH patients, median, n=7, read-out: Tmax), 1.9 h. Besides, the Tmax in series [4] (human, plasma, oral, 300 to 900 mg/day, read-out: median Tmax values across dose levels) lay within 1.5 to 1.9 h. The CL/F is 3.55 mL/min in series [4] (human, plasma, oral, 300 mg/day (Tablet D), steady state, FH patients, n=8); 3.9 mL/min in series [4] (human, plasma, oral, 600 mg/day (2× Tablet D), steady state, FH patients, n=8); 4.52 mL/min in series [4] (human, plasma, oral, 900 mg/day (3× Tablet D), steady state, FH patients, n=7). In addition, in series [4] (human, plasma, oral, 900 mg/day treatment period, Day 14, read-out: trough gemcabene plasma concentration, patient 006-003), the concentration at 14 day of the 900 mg/day period came to 122 µg/mL. In addition, the concentration at 28 day of the 900 mg/day period in series [4] (human, plasma, oral, 900 mg/day treatment period, Day 28, read-out: trough gemcabene plasma concentration, patient 006-003) came to 43.5 µg/mL.

Take `C#C[C@]1(O)CC[C@H]2[C@@H]3CCC4=CC(=O)CC[C@@H]4[C@H]3CC[C@@]21C` [norethindrone]: in series [1] (setting [5]), the “AUCinf (h*pg/mL): Ratio Geom. LS Mean (Treatment B/Treatment A)” value worked out at 86.33%, the “AUClast (h*pg/mL): Ratio Geom. LS Mean (Treatment B/Treatment A)” value is 85.94% and the “Cmax (pg/mL): Ratio Geom. LS Mean (Treatment B/Treatment A)” value turned out to be 90.56%. Also, the “exposure in presence of gemcabene calcium salt hydrate Crystal Form 1 (geometric LS mean ratio)” value in series [1] is recorded as “slightly decreased”.
